The results in this text go back to patent US8258149B2, “Isoquinoline derivatives” (Hoffmann-La Roche Inc., priority 2009, dated 2012).

For this assay, the system named is L6 myotubes. Put plainly: Glucose uptake (2-deoxy-D-[3H]glucose) in L6 myotubes, effectiveness in muscular glucose utilization. Type of assay: cell-based. Particulars: Rattus norvegicus, L6 myotubes treated with compound 2 hours. The procedure: L6 myoblasts were cultured in DMEM supplemented with 10% FBS. Confluent cells were differentiated to myotubes by culturing with DMEM supplemented with 2% FBS for 6 days. L6 myotubes were treated with compounds for 2 hours. Glucose uptake was performed in 16 h serum-starved cells. Cells were washed with PBS and incubated in Krebs-Ringer phosphate-HEPES buffer containing 0.1% BSA with or without 100 nmol/l insulin. Then, cells were incubated with 0.05 mmol/l 2-deoxy-D-glucose and 0.5 μCi 2-deoxy-D-[1,2-^3H]glucose for 10 min. The assay was terminated by washing the cells three times with ice-cold PBS. Cells were solubilised with 0.1% triton X-100 and radioactivity was determined by liquid scintillation counting. Total cellular protein concentration was measured by the Bradford method. Glucose uptake was performed in duplicate. The compounds were tested at concentrations of 1 uM and 3 uM. In this test, the compounds of formula (I) induce a glucose uptake activity between 1 and 2 fold the glucose uptake activity of the vehicle. Some particularly preferred compounds of formula (I) induce a glucose uptake activity between 1.2 and 2 fold the glucose uptake of the vehicle. Other particularly preferred compounds of formula (I) induce a glucose uptake activity between 1.4 and 2 fold the glucose uptake activity of the vehicle.

As to `COc1ccc2c(c1OC)C(C)(C)N1CCc3cc4c(cc3C1=C2C)OCO4` [Example 14, 9,10-Dimethoxy-8,8,13-trimethyl-5,8-dihydro-6H-[1,3]dioxolo[4,5-g]isoquino[3,2-a]isoquinoline], the fold induction at 1 µM was determined as 1.21 and the fold induction at 3 µM is 1.18.

Regarding `CCC1=C2c3cc4c(cc3CCN2C(C)(C)c2c1ccc(OC)c2OC)OCO4` [Example 16, 13-Ethyl-9,10-dimethoxy-8,8-dimethyl-5,8-dihydro-6H-[1,3]dioxolo[4,5-g]isoquino[3,2-a]isoquinoline], the fold induction at 1 µM stood at 1.25 and the fold induction at 3 µM is 0.91. In the case of `C=C(C)C1c2c(ccc(OC)c2OC)C(C)=C2c3cc4c(cc3CCN21)OCO4` (centres unmarked) [Example 8, 8-Isopropenyl-9,10-dimethoxy-13-methyl-5,8-dihydro-6H-[1,3]dioxolo[4,5-g]isoquino[3,2-a]isoquinoline], the fold induction at 1 µM amounted to 1.2 and the fold induction at 3 µM worked out at 1.35. Take `C=CC1c2c(ccc(OC)c2OC)C=C2c3cc4c(cc3CCN21)OCO4` (centres unmarked) [Example 3, 9,10-Dimethoxy-8-vinyl-5,8-dihydro-6H-[1,3]dioxolo[4,5-g]isoquino[3,2-a]isoquinoline]: the fold induction at 1 µM was determined as 1.16 and the fold induction at 3 µM stood at 1.11. `C=C(C)C1c2c(ccc(OC)c2OC)C=C2c3cc4c(cc3CCN21)OCO4` (centres unmarked) [Example 4, 8-Isopropenyl-9,10-dimethoxy-5,8-dihydro-6H-[1,3]dioxolo[4,5-g]isoquino[3,2-a]isoquinoline]: the fold induction at 1 µM was found to be 1.86 and the fold induction at 3 µM is 1.46.

As for `COc1ccc2c(c1OC)C(C)(C)N1CCc3cc4c(cc3C1=C2)OCO4` [Example 27, 9,10-Dimethoxy-8,8-dimethyl-5,8-dihydro-6H-[1,3]dioxolo[4,5-g]isoquino[3,2-a]isoquinoline], the fold induction at 1 µM is 1.62 and the fold induction at 3 µM amounted to 1.65. As to `C=C(C)C1c2c(ccc(OC)c2OC)C(CC)=C2c3cc4c(cc3CCN21)OCO4` (centres unmarked) [Example 10, 13-Ethyl-8-isopropenyl-9,10-dimethoxy-5,8-dihydro-6H-[1,3]dioxolo[4,5-g]isoquino[3,2-a]isoquinoline], the fold induction at 1 µM came to 1.05 and the fold induction at 3 µM is 1.22. Take `CCC1(CC)c2c(ccc(OC)c2OC)C=C2c3cc4c(cc3CCN21)OCO4` [Example 28, 8,8-Diethyl 9,10-dimethoxy-5,8-dihydro-6H-[1,3]dioxolo[4,5-g]isoquino[3,2-a]isoquinoline]: the fold induction at 1 µM is 1.47 and the fold induction at 3 µM was 1.12. For `CC#CC1c2c(ccc(OC)c2OC)C(C)=C2c3cc4c(cc3CCN21)OCO4` (centres unmarked) [Example 9, 9,10-Dimethoxy-13-methyl-8-prop-1-ynyl-5,8-dihydro-6H-[1,3]dioxolo[4,5-g]isoquino[3,2-a]isoquinoline], the fold induction at 1 µM turned out to be 1.63 and the fold induction at 3 µM stood at 0.99. For `CC#CC1c2c(ccc(OC)c2OC)C(CC)=C2c3cc4c(cc3CCN21)OCO4` (centres unmarked) [Example 12, 13-Ethyl-9,10-dimethoxy-8-prop-1-ynyl-5,8-dihydro-6H-[1,3]dioxolo[4,5-g]isoquino[3,2-a]isoquinoline], the fold induction at 1 µM turned out to be 1.59 and the fold induction at 3 µM was 1.22. Turning to `C=CCC1c2c(ccc(OC)c2OC)C=C2c3cc4c(cc3CCN21)OCO4` (centres unmarked) [Example 6, 8-Allyl-9,10-dimethoxy-5,8-dihydro-6H-[1,3]dioxolo[4,5-g]isoquino[3,2-a]isoquinoline], the fold induction at 3 µM turned out to be 1.07. Consider `CC#CC1c2c(ccc(OC)c2OC)C=C2c3cc4c(cc3CCN21)OCO4` (centres unmarked) [Example 7, 9,10-Dimethoxy-8-prop-1-ynyl-5,8-dihydro-6H-[1,3]dioxolo[4,5-g]isoquino[3,2-a]isoquinoline], for which the fold induction at 1 µM stood at 1.58 and the fold induction at 3 µM was 1.68. On to `C=CCC1c2c(ccc(OC)c2OC)C(CC)=C2c3cc4c(cc3CCN21)OCO4` (centres unmarked) [Example 11, 8-Allyl-13-ethyl-9,10-dimethoxy-5,8-dihydro-6H-[1,3]dioxolo[4,5-g]isoquino[3,2-a]isoquinoline], for which the fold induction at 1 µM amounted to 1.15.

Take `CCC1(CC)c2c(ccc(OC)c2OC)C(C)C2c3cc4c(cc3CCN21)OCO4` (centres unmarked) [Example 23, 8,8-Diethyl-9,10-dimethoxy-13-methyl-5,8,13,13a-tetrahydro-6H-[1,3]dioxolo[4,5-g]isoquino[3,2-a]isoquinoline]: the fold induction at 1 µM came to 1.1 and the fold induction at 3 µM amounted to 1.14.

In the case of `COc1ccc2c(c1OC)C1(CCCC1)N1CCc3cc4c(cc3C1=C2)OCO4` [Example 20, 9′,10′-Dimethoxy-5′,6′-dihydrospiro[cyclopentane-1,8′-[1,3]dioxolo[4,5-g]isoquino[3,2-a]isoquinoline]], the fold induction at 1 µM is 1.2 and the fold induction at 3 µM is 1.18.

In the case of `C=CCC1(CC=C)c2c(ccc(OC)c2OC)C=C2c3cc4c(cc3CCN21)OCO4` [Example 17, 8,8-Diallyl-9,10-dimethoxy-5,8-dihydro-6H-[1,3]dioxolo[4,5-g]isoquino[3,2-a]isoquinoline], the fold induction at 1 µM amounted to 1.34 and the fold induction at 3 µM was 1.04.

For `COc1ccc2c(c1OC)C(C)(C)N1CCc3cc4c(cc3C1=C2Cc1ccccc1)OCO4` [Example 18, 13-Benzyl-9,10-dimethoxy-8,8-dimethyl-5,8-dihydro-6H-[1,3]dioxolo[4,5-g]isoquino[3,2-a]isoquinoline], the fold induction at 1 µM stood at 1.19 and the fold induction at 3 µM came out at 1.05. Take `C=CCC1=C2c3cc4c(cc3CCN2C(C(=C)C)c2c1ccc(OC)c2OC)OCO4` (centres unmarked) [Example 13, 13-Allyl-8-isopropenyl-9,10-dimethoxy-5,8-dihydro-6H-[1,3]dioxolo[4,5-g]isoquino[3,2-a]isoquinoline]: the fold induction at 1 µM was determined as 0.94 and the fold induction at 3 µM turned out to be 1.05. As for `COc1ccc2c(c1OC)C(C)(C)N1CCc3cc4c(cc3C1C2Cc1ccccn1)OCO4` (centres unmarked) [Example 24, 9,10-Dimethoxy-8,8-dimethyl-13-pyridin-2-ylmethyl-5,8,13,13a-tetrahydro-6H-[1,3]dioxolo[4,5-g]isoquino[3,2-a]isoquinoline], the fold induction at 1 µM is 1.11 and the fold induction at 3 µM amounted to 1.03. Consider `COc1cc(Cl)c2c(c1OC)C(C)(C)N1CCc3cc4c(cc3C1=C2)OCO4` [Example 19, 12-Chloro-9,10-dimethoxy-8,8-dimethyl-5,8-dihydro-6H-[1,3]dioxolo[4,5-g]isoquino[3,2-a]isoquinoline], for which the fold induction at 1 µM amounted to 1.25 and the fold induction at 3 µM amounted to 1.24. Regarding `COc1ccc2c(c1OC)C(c1ccccc1)N1CCc3cc4c(cc3C1=C2)OCO4` (centres unmarked) [Example 1, 9,10-Dimethoxy-8-phenyl-5,8-dihydro-6H-[1,3]dioxolo[4,5-g]isoquino[3,2-a]isoquinoline], the fold induction at 1 µM is 1.32 and the fold induction at 3 µM stood at 1.3. For `COc1ccc2c(c1OC)C1(CC=CC1)N1CCc3cc4c(cc3C1C2)OCO4` (centres unmarked) [Example 26, 9′,10′-Dimethoxy-5′,6′,13′,13a′-tetrahydrospiro[cyclopent-3-ene-1,8′-[1,3]dioxolo[4,5-g]isoquino[3,2-a]isoquinoline]], in that order: 1.12 and 1.11. Take `COc1ccc2c(c1OC)C(C)(C)N1CCc3cc4c(cc3C1C2)OCO4` (centres unmarked) [Example 21, 9,10-Dimethoxy-8,8-dimethyl-5,8,13,13a-tetrahydro-6H-[1,3]dioxolo[4,5-g]isoquino[3,2-a]isoquinoline]: the fold induction at 1 µM is 1.22 and the fold induction at 3 µM was 1.14.

In the case of `COc1ccc2c(c1OC)C1(CCCC1)N1CCc3cc4c(cc3C1C2)OCO4` (centres unmarked) [Example 2, 9′,10′-Dimethoxy-5′,6′,13′,13a′-tetrahydrospiro[cyclopentane-1,8′-[1,3]dioxolo[4,5-g]isoquino[3,2-a]isoquinoline]], the fold induction at 1 µM was determined as 1.11 and the fold induction at 3 µM was found to be 1.07. Turning to `COc1ccc2c(c1OC)C(C)(C)N1CCc3cc4c(cc3C1C2C)OCO4` (centres unmarked) [Example 22, 9,10-Dimethoxy-8,8,13-trimethyl-5,8,13,13a-tetrahydro-6H-[1,3]dioxolo[4,5-g]isoquino[3,2-a]isoquinoline], the fold induction at 1 µM was 1.38 and the fold induction at 3 µM is 1.46.

Regarding `C#CC1c2c(ccc(OC)c2OC)C=C2c3cc4c(cc3CCN21)OCO4` (centres unmarked) [Example 5, 8-Ethynyl-9,10-dimethoxy-5,8-dihydro-6H-[1,3]dioxolo[4,5-g]isoquino[3,2-a]isoquinoline], the fold induction at 3 µM worked out at 1.15.

With `COc1ccc2c(c1OC)C(C)(C)N1CCc3cc4c(cc3C1C2Cc1ccccc1)OCO4` (centres unmarked) [Example 25, 13-Benzyl-9,10-dimethoxy-8,8-dimethyl-5,8,13,13a-tetrahydro-6H-[1,3]dioxolo[4,5-g]isoquino[3,2-a]isoquinoline], the fold induction at 1 µM was 1.13 and the fold induction at 3 µM was 1.02. For `CCC1(CC)c2c(ccc(OC)c2OC)C(C)=C2c3cc4c(cc3CCN21)OCO4` [Example 15, 8,8-Diethyl-9,10-dimethoxy-13-methyl-5,8-dihydro-6H-[1,3]dioxolo[4,5-g]isoquino[3,2-a]isoquinoline], in that order: 1.22 and 1.14.
